Results from publication PMC8213057, “Targeting ALK2: An Open Science Approach to Developing Therapeutics for the Treatment of Diffuse Intrinsic Pontine Glioma” (Journal of Medicinal Chemistry, 2020).

Tests used:
[1] = molecular target: T1, MKK4 (Homo sapiens, UniProt P45985); assay: biochemical; details: read-out: % enzyme activity, 1 μM; Run 1, Run 2
T1 sequence (P45985 1-399): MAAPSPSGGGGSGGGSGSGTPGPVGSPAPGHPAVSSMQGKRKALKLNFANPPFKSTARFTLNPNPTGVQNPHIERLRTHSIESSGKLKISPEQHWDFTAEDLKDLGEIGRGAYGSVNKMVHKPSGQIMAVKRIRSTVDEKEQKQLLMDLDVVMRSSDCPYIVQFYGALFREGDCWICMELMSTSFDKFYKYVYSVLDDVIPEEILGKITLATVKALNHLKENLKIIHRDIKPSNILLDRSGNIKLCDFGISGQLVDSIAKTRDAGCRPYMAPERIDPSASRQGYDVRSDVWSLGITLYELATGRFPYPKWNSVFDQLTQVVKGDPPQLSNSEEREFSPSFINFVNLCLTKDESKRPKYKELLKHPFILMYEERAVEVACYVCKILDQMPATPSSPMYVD

[2] = molecular target: T2, PKG1b (Homo sapiens, UniProt Q13976); assay: biochemical; details: read-out: % enzyme activity, 1 μM; Run 1, Run 2
T2 sequence (Q13976 1-686 isoform Q13976-2): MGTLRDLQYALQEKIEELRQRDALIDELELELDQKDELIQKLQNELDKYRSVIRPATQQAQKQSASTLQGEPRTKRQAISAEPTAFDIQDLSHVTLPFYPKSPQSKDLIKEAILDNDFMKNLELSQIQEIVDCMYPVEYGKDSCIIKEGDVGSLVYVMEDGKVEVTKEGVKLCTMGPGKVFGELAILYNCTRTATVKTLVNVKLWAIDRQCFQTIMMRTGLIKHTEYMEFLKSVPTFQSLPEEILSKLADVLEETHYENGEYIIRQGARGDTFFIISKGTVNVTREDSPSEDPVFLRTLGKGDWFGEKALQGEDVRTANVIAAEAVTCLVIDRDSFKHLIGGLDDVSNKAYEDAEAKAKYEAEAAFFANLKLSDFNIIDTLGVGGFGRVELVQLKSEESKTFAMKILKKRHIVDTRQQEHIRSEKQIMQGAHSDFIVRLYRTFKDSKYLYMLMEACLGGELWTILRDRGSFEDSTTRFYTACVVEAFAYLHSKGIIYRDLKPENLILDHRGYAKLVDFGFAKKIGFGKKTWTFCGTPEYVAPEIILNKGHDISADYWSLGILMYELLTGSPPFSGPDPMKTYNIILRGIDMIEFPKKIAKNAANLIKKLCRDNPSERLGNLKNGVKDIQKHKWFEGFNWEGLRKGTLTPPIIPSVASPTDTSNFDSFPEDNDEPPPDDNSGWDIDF

[3] = molecular target: T3, TEC (Homo sapiens, UniProt P42680); details: 1 μM; Run 1, Run 2
T3 sequence (P42680 1-631): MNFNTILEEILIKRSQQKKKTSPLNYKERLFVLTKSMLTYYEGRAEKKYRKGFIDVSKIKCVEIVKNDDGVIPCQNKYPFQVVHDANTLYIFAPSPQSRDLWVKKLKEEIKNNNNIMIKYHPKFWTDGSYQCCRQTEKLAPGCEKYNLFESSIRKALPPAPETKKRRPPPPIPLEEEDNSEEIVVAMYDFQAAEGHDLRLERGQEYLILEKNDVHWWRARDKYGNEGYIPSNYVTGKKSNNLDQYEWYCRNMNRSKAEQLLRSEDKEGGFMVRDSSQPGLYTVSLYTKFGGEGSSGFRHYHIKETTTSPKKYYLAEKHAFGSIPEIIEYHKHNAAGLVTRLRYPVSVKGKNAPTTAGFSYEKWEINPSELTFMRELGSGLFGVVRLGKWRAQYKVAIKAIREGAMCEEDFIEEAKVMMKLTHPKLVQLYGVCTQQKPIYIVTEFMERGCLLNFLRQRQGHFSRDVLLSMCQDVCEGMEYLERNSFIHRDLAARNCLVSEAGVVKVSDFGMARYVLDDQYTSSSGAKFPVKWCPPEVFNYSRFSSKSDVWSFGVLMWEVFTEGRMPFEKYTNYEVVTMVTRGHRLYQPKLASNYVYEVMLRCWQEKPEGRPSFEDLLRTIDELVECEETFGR

[4] = molecular target: LIMK2 (Homo sapiens, UniProt P53671); details: 1 μM; Run 1, Run 2
Sequence of LIMK2 (P53671 whole entry): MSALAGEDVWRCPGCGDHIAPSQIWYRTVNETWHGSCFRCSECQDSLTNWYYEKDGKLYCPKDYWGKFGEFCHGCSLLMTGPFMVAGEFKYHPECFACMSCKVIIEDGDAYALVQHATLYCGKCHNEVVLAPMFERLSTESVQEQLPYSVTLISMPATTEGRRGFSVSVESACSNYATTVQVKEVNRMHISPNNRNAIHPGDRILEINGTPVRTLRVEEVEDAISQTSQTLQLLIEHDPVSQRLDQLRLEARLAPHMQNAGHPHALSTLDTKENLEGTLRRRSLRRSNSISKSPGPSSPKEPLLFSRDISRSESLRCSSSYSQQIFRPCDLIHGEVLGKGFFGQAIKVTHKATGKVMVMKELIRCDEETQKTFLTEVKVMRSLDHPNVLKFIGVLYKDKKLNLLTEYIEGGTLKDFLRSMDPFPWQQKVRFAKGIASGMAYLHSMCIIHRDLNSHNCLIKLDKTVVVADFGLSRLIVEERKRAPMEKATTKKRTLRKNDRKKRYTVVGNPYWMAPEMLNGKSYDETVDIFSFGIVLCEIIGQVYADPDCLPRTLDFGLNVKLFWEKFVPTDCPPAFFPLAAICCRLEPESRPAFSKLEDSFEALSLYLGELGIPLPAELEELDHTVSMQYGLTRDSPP

[5] = molecular target: T4, LCK2/ICK (Homo sapiens, UniProt Q9UPZ9); assay: biochemical; details: read-out: % enzyme activity, 1 μM; Run 1, Run 2
T4 sequence (Q9UPZ9 1-632): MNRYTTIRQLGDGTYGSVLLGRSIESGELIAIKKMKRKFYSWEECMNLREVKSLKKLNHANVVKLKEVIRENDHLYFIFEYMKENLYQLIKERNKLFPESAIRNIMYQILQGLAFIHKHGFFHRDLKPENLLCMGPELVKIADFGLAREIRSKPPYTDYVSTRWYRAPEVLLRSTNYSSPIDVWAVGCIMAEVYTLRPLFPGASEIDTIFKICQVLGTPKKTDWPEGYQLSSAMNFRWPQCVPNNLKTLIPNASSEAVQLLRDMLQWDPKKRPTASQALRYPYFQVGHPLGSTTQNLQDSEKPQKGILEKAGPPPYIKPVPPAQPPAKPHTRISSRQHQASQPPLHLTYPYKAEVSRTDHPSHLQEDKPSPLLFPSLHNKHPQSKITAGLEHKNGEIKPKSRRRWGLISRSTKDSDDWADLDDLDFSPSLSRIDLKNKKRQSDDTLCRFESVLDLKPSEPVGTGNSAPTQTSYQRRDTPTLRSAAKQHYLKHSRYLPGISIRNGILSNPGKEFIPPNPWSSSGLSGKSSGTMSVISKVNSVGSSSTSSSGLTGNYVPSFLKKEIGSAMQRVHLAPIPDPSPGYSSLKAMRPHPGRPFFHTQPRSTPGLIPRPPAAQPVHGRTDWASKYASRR

[6] = molecular target: ERK2/MAPK1 (Homo sapiens, UniProt P28482); details: 1 μM; Run 1, Run 2
Sequence of ERK2/MAPK1 (P28482 whole entry): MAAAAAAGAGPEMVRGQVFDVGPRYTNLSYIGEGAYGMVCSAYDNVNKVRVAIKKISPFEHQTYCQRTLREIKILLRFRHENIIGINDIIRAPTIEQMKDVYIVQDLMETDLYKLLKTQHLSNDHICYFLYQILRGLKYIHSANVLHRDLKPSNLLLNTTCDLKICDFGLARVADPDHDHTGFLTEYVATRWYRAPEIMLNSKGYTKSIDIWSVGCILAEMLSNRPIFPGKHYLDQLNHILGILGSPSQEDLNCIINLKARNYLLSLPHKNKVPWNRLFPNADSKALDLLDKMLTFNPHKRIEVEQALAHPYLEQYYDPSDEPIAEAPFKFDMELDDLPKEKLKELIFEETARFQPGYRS

[7] = molecular target: AKT2 (Homo sapiens, UniProt P31751); details: 1 μM; Run 1, Run 2
Sequence of AKT2 (P31751 whole entry): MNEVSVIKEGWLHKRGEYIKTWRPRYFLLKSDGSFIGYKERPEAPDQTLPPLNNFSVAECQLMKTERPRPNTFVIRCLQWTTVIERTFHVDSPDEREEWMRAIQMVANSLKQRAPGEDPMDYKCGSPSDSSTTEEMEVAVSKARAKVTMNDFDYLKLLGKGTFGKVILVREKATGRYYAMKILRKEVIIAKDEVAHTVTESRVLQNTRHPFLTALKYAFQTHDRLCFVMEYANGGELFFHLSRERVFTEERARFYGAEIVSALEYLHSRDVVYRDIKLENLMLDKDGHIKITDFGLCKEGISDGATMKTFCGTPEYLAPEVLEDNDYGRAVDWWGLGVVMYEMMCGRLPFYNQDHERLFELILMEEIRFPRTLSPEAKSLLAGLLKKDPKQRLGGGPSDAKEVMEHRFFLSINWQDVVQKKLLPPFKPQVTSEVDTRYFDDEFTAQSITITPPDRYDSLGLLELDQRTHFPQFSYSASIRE

[8] = molecular target: NEK7 (Homo sapiens, UniProt Q8TDX7); assay: biochemical; details: read-out: % enzyme activity, 1 μM; Run 1, Run 2
Sequence of NEK7 (Q8TDX7 whole entry): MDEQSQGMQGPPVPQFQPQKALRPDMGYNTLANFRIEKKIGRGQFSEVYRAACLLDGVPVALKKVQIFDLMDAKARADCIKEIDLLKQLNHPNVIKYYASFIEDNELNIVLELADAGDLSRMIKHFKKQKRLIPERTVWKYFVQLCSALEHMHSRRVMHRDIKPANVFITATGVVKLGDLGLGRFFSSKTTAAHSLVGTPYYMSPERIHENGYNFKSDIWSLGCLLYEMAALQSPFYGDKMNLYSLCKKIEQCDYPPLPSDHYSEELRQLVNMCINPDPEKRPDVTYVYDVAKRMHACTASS

SMILES | remaining activity at 1 µM [1] | remaining activity at 1 µM [2] | % enzyme activity [3] | % enzyme activity [4] | remaining activity at 1 µM [5] | % enzyme activity [6] | % enzyme activity [7] | remaining activity at 1 µM [8]
COc1cc(-c2cncc(-c3ccc(N4C[C@@H](C)N(C)[C@@H](C)C4)cc3)c2C)cc(F)c1C(N)=O [Compound 26c, 2-Fluoro-6-methoxy-4-(4-methyl-5-(4-((3R,5S)-3,4,5-trimethylpiperazin-1-yl)phenyl)pyridin-3-yl)benzamide] | 94.6% | 98.8% | 106.19% | 95.75% | 97.5% | 87.49% | 92.08% | 97.4%
COc1cc(-c2cncc(-c3ccc(N4CCN(C)CC4)cc3)c2C)cc(F)c1C(N)=O [Compound 26a, 2-Fluoro-6-methoxy-4-(4-methyl-5-(4-(4-methylpiperazin-1-yl)phenyl)pyridin-3-yl)benzamide] | 101% | 102% | 107.42% | 99.63% | 108% | 91.58% | 91.70% | 97.6%
